According to ChEMBL document CHEMBL5346964, “Discovery of LNP1892: A Precision Calcimimetic for the Treatment of Secondary Hyperparathyroidism” (J Med Chem, 2023):

Columns and labels:
[1] = Cmax in Sprague-Dawley rat at 1 mg/kg, iv measured upto 24 hrs by LC-MS/MS analysis; assay type: ADME, organism-based; parameters: dose 1 mg/kg, time < 24 hrs, route iv; conditions: in vivo
[2] = Microsomal stability in human liver microsomes assessed as parent compound remaining at 1 uM measured upto 30 mins in presence of NADPH by LC-MS/MS analysis; assay type: ADME, Microsome; conditions: liver microsomes, read-out: Stability
[3] = Cmax in Sprague-Dawley rat at 10 mg/kg, po measured upto 24 hrs by LC-MS/MS analysis; assay type: ADME, organism-based; parameters: time < 24 hrs, dose 10 mg/kg, route po; conditions: in vivo
[4] = Microsomal stability in rat liver microsomes assessed as parent compound remaining at 1 uM measured upto 30 mins in presence of NADPH by LC-MS/MS analysis; assay type: ADME, Microsome; conditions: read-out: Stability
[5] = AUClast in Sprague-Dawley rat at 10 mg/kg, po measured upto 24 hrs by LC-MS/MS analysis; assay type: ADME, organism-based; parameters: dose 10 mg/kg, time < 24 hrs, route po; conditions: in vivo
[6] = target: T1, hERG (Homo sapiens, UniProt Q12809); experiment: Inhibition of hERG at 1 uM relative to control; assay type: toxicity
[7] = target: T2, CYP2D6 (Homo sapiens, UniProt P10635); experiment: Inhibition of CYP2D6 in human liver microsomes at 1 uM preincubated for 5 mins followed by NADPH addition by LC-MS/MS analysis relative to control; assay type: ADME, Microsome
[8] = Clearance in Sprague-Dawley rat at 1 mg/kg, iv measured upto 24 hrs by LC-MS/MS analysis; assay type: ADME, organism-based; conditions: in vivo
[9] = Effect on parathyroid hormone in overnight fasted Sprague-Dawley rat assessed as reduction in plasma PTH level at 10 mg/kg, po measured after 1 hrs of post treatment by sandwich ELISA analysis; assay type: functional; parameters: scale not given: the % may be the effect or the level left
[10] = Oral bioavailability in Sprague-Dawley rat at 10 mg/kg measured upto 24 hrs by LC-MS/MS analysis; assay type: ADME, organism-based; conditions: in vivo
[11] = Effect on parathyroid hormone in overnight fasted Sprague-Dawley rat assessed as reduction in plasma PTH level at 30 mg/kg, po measured after 4 hrs of post treatment by sandwich ELISA analysis; assay type: functional; parameters: scale not given: the % may be the effect or the level left
[12] = Effect on parathyroid hormone in overnight fasted Sprague-Dawley rat assessed as reduction in plasma PTH level at 30 mg/kg, po measured after 1 hrs of post treatment by sandwich ELISA analysis; assay type: functional; parameters: scale not given: the % may be the effect or the level left
[13] = Effect on parathyroid hormone in overnight fasted Sprague-Dawley rat assessed as reduction in plasma PTH level at 30 mg/kg, po measured after 2 hrs of post treatment by sandwich ELISA analysis; assay type: functional; parameters: scale not given: the % may be the effect or the level left
[14] = target: T3, Extracellular calcium-sensing receptor (Homo sapiens, UniProt P41180); experiment: Agonist activity at human CaSR expresssed in HEK293 cells in presence of glucose by Fluo4NW dye based FLIPR assay; assay type: functional, cell-based; conditions: read-out: EC50
T3 sequence (P41180 whole entry): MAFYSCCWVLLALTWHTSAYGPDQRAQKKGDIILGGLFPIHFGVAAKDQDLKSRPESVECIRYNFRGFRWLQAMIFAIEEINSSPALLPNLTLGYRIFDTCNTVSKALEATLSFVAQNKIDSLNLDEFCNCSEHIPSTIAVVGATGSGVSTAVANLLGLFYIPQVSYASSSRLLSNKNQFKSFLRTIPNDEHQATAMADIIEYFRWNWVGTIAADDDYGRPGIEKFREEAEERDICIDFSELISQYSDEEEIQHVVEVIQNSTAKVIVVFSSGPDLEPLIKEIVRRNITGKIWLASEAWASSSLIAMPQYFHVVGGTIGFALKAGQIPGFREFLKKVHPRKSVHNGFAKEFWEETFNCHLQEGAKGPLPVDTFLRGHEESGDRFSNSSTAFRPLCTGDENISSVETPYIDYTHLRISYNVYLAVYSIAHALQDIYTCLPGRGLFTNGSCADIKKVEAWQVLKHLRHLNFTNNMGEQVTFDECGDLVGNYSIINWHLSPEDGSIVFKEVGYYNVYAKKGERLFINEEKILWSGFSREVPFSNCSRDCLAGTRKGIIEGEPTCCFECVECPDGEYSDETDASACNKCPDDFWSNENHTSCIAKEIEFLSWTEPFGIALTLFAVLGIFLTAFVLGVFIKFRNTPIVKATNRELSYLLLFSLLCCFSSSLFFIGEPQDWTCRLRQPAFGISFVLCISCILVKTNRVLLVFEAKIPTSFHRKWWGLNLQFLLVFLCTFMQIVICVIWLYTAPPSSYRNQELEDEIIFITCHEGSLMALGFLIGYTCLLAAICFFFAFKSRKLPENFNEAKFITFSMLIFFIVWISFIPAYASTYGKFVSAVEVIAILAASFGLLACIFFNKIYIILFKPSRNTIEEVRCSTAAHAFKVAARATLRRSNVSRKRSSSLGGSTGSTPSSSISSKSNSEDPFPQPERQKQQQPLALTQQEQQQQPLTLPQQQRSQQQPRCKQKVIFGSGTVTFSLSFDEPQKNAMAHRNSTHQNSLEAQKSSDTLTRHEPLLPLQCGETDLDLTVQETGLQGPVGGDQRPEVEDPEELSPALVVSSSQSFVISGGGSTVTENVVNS

[15] = Effect on parathyroid hormone in overnight fasted Sprague-Dawley rat assessed as reduction in plasma PTH level at 10 mg/kg, po measured after 2 hrs of post treatment by sandwich ELISA analysis; assay type: functional; parameters: scale not given: the % may be the effect or the level left
[16] = target: T2, CYP2D6; experiment: Inhibition of CYP2D6 in human liver microsomes at 10 uM preincubated for 5 mins followed by NADPH addition by LC-MS/MS analysis relative to control; assay type: ADME, Microsome
[17] = Effect on parathyroid hormone in overnight fasted Sprague-Dawley rat assessed as reduction in plasma PTH level at 10 mg/kg, po measured after 4 hrs of post treatment by sandwich ELISA analysis (reference value: 18%); assay type: functional; parameters: scale not given: the % may be the effect or the level left
[18] = Effect on parathyroid hormone in overnight fasted Sprague-Dawley rat assessed as reduction in plasma PTH level at 10 mg/kg, po measured after 0.5 hrs of post treatment by sandwich ELISA analysis; assay type: functional; parameters: scale not given: the % may be the effect or the level left
[19] = Effect on parathyroid hormone in overnight fasted Sprague-Dawley rat plasma assessed as reduction in PTH level at 30 mg/kg, po measured after 0.5 hrs of post treatment by sandwich ELISA analysis; assay type: functional; parameters: scale not given: the % may be the effect or the level left
[20] = target: T1, hERG; experiment: Inhibition of hERG at 10 uM relative to control; assay type: toxicity
[21] = Half life in Sprague-Dawley rat at 1 mg/kg, iv measured upto 24 hrs by LC-MS/MS analysis; assay type: ADME, organism-based; conditions: in vivo
[22] = Tmax in Sprague-Dawley rat at 10 mg/kg, po measured upto 24 hrs by LC-MS/MS analysis; assay type: ADME, organism-based; conditions: in vivo
[23] = Volume of distribution at steady state in Sprague-Dawley rat at 1 mg/kg, iv measured upto 24 hrs by LC-MS/MS analysis; assay type: ADME, organism-based; conditions: in vivo, read-out: Vdss
[24] = AUClast in Sprague-Dawley rat at 1 mg/kg, iv measured upto 24 hrs by LC-MS/MS analysis; assay type: ADME, organism-based; parameters: dose 1 mg/kg, time < 24 hrs, route iv; conditions: in vivo
[25] = Tmax in Sprague-Dawley rat at 1 mg/kg, iv measured upto 24 hrs by LC-MS/MS analysis; assay type: ADME, organism-based; conditions: in vivo
[26] = target: Cytochrome P450 2D6 (Homo sapiens, UniProt P10635); experiment: Inhibition of CYP2D6 in human liver microsomes preincubated for 5 mins followed by NADPH addition by LC-MS/MS analysis; assay type: ADME, Microsome
[27] = Effect on parathyroid hormone in overnight fasted Sprague-Dawley rat assessed as reduction in plasma PTH level at 10 mg/kg, po measured after 6 hrs of post treatment by sandwich ELISA analysis (reference value: 33%); assay type: functional; parameters: scale not given: the % may be the effect or the level left
[28] = system: Rattus norvegicus; experiment: Subchronic effect on parathyroid hormone in overnight fasted adenine diet-induced chronic kidney disease Wistar rat model plasma assessed as reduction in plasma PTH level at 3 mg/kg, po qd measured after 27 days of post treatment by sandwich ELISA analysis; assay type: functional; parameters: scale not given: the % may be the effect or the level left; conditions: time 27 day
[29] = system: Rattus norvegicus; experiment: Acute effect on parathyroid hormone in overnight fasted adenine diet-induced chronic kidney disease Wistar rat model assessed as reduction in plasma PTH level at 10 mg/kg, po measured after 2 hrs of post treatment by sandwich ELISA analysis; assay type: functional; parameters: scale not given: the % may be the effect or the level left
[30] = system: Rattus norvegicus; experiment: Effect on parathyroid hormone in po dosed overnight fasted Sprague-Dawley rat assessed as reduction in plasma PTH level measured after 0.5 to 6 hrs of post treatment by sandwich ELISA analysis; assay type: functional, organism-based; conditions: dose 3-30 mg/kg, time 0.5-6 hrs
[31] = system: Rattus norvegicus; experiment: Acute effect on parathyroid hormone in overnight fasted adenine diet-induced chronic kidney disease Wistar rat model assessed as reduction in plasma PTH level at 10 mg/kg, po measured after 1 hrs of post treatment by sandwich ELISA analysis; assay type: functional; parameters: scale not given: the % may be the effect or the level left
[32] = system: Rattus norvegicus; experiment: Chronic effect on parathyroid hormone in overnight fasted adenine diet-induced chronic kidney disease Wistar rat model plasma assessed as reduction in plasma PTH level at 10 mg/kg, po qd measured after 27 days of post treatment by sandwich ELISA analysis; assay type: functional; parameters: scale not given: the % may be the effect or the level left; conditions: time 27 day
[33] = system: Rattus norvegicus; experiment: Acute effect on parathyroid hormone in overnight fasted adenine diet-induced chronic kidney disease Wistar rat model assessed as reduction in plasma PTH level at 10 mg/kg, po measured after 4 hrs of post treatment by sandwich ELISA analysis; assay type: functional; parameters: scale not given: the % may be the effect or the level left
[34] = in vivo; conditions: Sprague-Dawley, rat, iv, 0.3 mg/kg
Description: Cmax in Sprague-Dawley rat at 0.3 mg/kg, iv measured upto 24 hrs by LC-MS/MS analysis

[35] = in vivo; conditions: Sprague-Dawley, rat, po, 1 mg/kg
Description: Cmax in Sprague-Dawley rat at 1 mg/kg, po measured upto 24 hrs by LC-MS/MS analysis

[36] = Half life in Sprague-Dawley rat at 0.3 mg/kg, iv measured upto 24 hrs by LC-MS/MS analysis; conditions: in vivo
[37] = AUClast in Sprague-Dawley rat at 1 mg/kg, po measured upto 24 hrs by LC-MS/MS analysis; assay type: ADME, organism-based; parameters: dose 1 mg/kg, time < 24 hrs, route po; conditions: in vivo
[38] = Volume of distribution at steady state in Sprague-Dawley rat at 0.3 mg/kg, iv measured upto 24 hrs by LC-MS/MS analysis; conditions: in vivo
[39] = in vivo; conditions: Sprague-Dawley, rat, po, 1 mg/kg; remark: listed apart in the source
Description: Tmax in Sprague-Dawley rat at 1 mg/kg, po measured upto 24 hrs by LC-MS/MS analysis

[40] = Half life in Sprague-Dawley rat at 1 mg/kg, po measured upto 24 hrs by LC-MS/MS analysis; conditions: in vivo
[41] = Clearance in Sprague-Dawley rat at 0.3 mg/kg, iv measured upto 24 hrs by LC-MS/MS analysis; conditions: in vivo
[42] = AUClast in Sprague-Dawley rat at 0.3 mg/kg, iv measured upto 24 hrs by LC-MS/MS analysis; assay type: ADME, organism-based; parameters: dose 0.3 mg/kg, time < 24 hrs, route iv; conditions: in vivo

T1 sequence (Q12809 whole entry): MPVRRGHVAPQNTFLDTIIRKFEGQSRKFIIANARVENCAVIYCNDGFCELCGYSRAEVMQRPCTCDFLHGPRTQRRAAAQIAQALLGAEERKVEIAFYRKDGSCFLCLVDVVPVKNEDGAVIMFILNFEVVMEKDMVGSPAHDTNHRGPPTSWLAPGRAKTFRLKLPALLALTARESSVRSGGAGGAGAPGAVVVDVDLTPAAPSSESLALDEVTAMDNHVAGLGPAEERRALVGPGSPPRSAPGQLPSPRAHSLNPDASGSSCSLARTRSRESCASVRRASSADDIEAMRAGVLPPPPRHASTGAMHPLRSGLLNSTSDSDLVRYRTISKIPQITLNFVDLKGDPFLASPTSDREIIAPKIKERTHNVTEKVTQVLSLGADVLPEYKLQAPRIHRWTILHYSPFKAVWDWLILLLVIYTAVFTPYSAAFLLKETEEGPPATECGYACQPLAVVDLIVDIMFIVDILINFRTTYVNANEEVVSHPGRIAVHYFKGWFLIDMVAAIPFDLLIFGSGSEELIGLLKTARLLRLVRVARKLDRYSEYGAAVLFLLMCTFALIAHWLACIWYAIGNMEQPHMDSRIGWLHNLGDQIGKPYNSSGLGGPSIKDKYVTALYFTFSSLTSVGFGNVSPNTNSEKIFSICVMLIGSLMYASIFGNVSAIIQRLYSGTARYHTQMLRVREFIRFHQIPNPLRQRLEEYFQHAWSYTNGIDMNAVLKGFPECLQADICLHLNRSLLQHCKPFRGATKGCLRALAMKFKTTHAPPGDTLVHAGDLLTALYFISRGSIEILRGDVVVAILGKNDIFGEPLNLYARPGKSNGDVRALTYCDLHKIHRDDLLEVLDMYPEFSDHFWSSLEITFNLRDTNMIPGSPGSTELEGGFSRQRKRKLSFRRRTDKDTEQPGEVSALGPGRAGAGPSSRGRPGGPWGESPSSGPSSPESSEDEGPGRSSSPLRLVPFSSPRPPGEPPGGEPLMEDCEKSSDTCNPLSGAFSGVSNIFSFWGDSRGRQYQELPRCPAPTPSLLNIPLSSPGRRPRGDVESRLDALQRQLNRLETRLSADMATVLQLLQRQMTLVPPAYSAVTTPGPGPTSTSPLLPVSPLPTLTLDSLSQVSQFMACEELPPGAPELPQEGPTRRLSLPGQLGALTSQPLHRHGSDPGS
T2 sequence (P10635 whole entry): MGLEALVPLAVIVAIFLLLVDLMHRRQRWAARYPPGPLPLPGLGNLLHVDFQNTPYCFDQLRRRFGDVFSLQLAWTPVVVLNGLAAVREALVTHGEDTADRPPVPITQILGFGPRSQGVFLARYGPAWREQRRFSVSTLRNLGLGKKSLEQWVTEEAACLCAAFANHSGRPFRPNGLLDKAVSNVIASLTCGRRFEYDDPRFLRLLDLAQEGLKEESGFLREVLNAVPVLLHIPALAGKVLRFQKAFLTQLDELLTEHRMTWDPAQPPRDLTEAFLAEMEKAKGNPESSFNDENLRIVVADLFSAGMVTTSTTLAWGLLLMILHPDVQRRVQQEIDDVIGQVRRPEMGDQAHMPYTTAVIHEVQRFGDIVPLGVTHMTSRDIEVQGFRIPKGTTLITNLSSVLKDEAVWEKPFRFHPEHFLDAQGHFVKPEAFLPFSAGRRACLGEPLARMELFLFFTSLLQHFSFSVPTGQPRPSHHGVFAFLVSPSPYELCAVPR
Sequence of Cytochrome P450 2D6 (P10635 whole entry): as above

Row | Structure (SMILES) | Cmax [1] | remaining at 0.5 h, 1 µM [2] | Cmax [3] | remaining at 0.5 h, 1 µM [4] | AUC(0-t) at 24 h [5] | inhibition at 1 µM [6] | clearance [8] | bioavailability [10] | EC50 [14] | Activity [15] | Activity [17] | Activity [18] | inhibition at 10 µM [20] | half-life [21] | Tmax [22] | Vd [23] | AUC(0-t) at 24 h [24] | also measured
1 | Cc1ccc(N2CC(CN[C@H](C)c3cccc4ccccc34)Oc3ccccc32)cc1C(=O)O.Cl (stereo partly specified) | 5000 nM | 45% | 13000 nM | 55% | 55 µM·h | 7% | 5 mL/min/kg | 79% | 7 nM | 100% | 66% | 100% | 14% | 3 h | 0.05 h | 1 L/kg | 7 µM·h | inhibition at 1 µM [7]: 44%; Activity [9]: 86%; Activity [11]: 92%; Activity [12]: 97%; Activity [13]: 100%; inhibition at 10 µM [16]: 47%; Activity [19]: 100%; Tmax [25]: 4.8 min
2 | C[C@@H](NCCCc1cccc(C(F)(F)F)c1)c1cccc2ccccc12 [CINACALCET] | 500 nM | 65% | 270 nM | 4% | 1.9 µM·h | 19% | 44 mL/min/kg | 19% | 4 nM | 99% | 74% | 92% | 97% | 6 h | 0.5 h | 23 L/kg | 1.02 µM·h | IC50 [26]: > 50000 nM; Activity [27]: 61%; Activity [28]: 37%; Activity [29]: 97%; Activity [30]: Dose-Dependent Effect; Activity [31]: 92%; Activity [32]: 58%; Activity [33]: 71%
3 | C[C@@H](N[C@H]1CCN(c2ccc(CC(=O)O)cc2)C1)c1cccc2ccccc12 [EVOCALCET] |  | 68% |  | 34% |  |  |  |  |  |  |  |  |  |  |  |  |  | Cmax at 24 h [34]: 270 nM; Cmax at 24 h [35]: 5840 nM; half-life at 24 h [36]: 7.32 h; AUC(0-t) at 24 h [37]: 23 µM·h; Vd at 24 h [38]: 0.591 L/kg; Tmax at 24 h [39]: 0.81 h; half-life at 24 h [40]: 6.13 h; clearance at 24 h [41]: 1.67 mL/min/kg; AUC(0-t) at 24 h [42]: 8.03 µM·h
